One test deals with SL13 cells. The test can be described thus: Bulk telomere length, Southern blot, SL13 long-term culture. It counts as cell-based, mouse. An excerpt: ATM has been proposed to play different roles in signaling telomere dysfunction in human and mouse cells. Since it is not yet clear whether the damage signaling is mechanistically linked to telomere elongation, and given the discrepant reports of the role of ATM in human telomere length, the role of ATM in human cells was revisited.
As an independent test of Olaparib on telomere length, telomeres were examined by Southern blot in cultured SL13 cells grown in the presence of Olaparib for an extended time. […] Taken together, the experiments described here indicate that inhibition of ATM blocks telomere elongation while activation of ATM stimulates telomere elongation.
Telomere lengths of SL13 cells treated with 10 μM KU55933 were measured at different population doublings (PD) using genomic Southern blot analysis. […] Boxed numbers indicate the pixel positions corresponding to the blot.
To examine the in vivo chr4 cleavage, genomic DNA of SL13 treated with doxycycline for various time points was extracted using the Puregene™ Core Kit A (Qiagen) and digested with NcoI restriction enzyme (NEB). […] Labeled probe was counted and 10^6 counts/ml (probe) or 10^4 counts/ml (2-log ladder) was denatured at 100° C. for 5 minutes and added to the pre-hybridization solution and hybridized overnight at 42° C. […]

For another test, the target named is T1, telomerase (Homo sapiens, UniProt O14746).
T1 construct: expressed in transfected cells; host or cells: 293TREx-0611 cells overexpressing TPP1, POT1 and hTERT, transfected with U1-hTR; whole cell lysate
The test can be described thus: Direct telomerase activity assay in lysates of treated cells. Conditions: 293TREx-0611 cells; 30 μM KU55933 or 5 μM Olaparib for two hours. It is filed as cell-based. As to the method: Telomerase is known to be phosphorylated, so whether the KU55933 or Olaparib treatment of cells might directly affect telomerase activity was examined. […] ATM kinase is a positive regulator of telomere elongation in both mouse and human cells, and the effects of ATM inhibition are not due to inhibition of telomerase enzyme activity.
Telomerase activity was assayed in whole cell lysates with a modified protocol (Nandakumar et al., 2012, Nature 492, 285-289). 293TREx-0611 cells overexpressing TPP1, POT1, and hTERT were seeded (3×10^5 cells) per well in a poly-D-Lysine coated 6-well plate. The next day, cells were transfected with U1-hTR using Lipofectamine™ 3000 and incubated overnight. Then, they were treated with 30 μM KU55933, 5 μM Olaparib, or DMSO for two hours before harvesting in 100 μl 1×CHAPS. Cells were lysed on ice for 30 minutes, vortexing occasionally, and cleared by spinning (8000 rpm, 20 min, 4° C.). For negative controls, 25 μl cleared lysate was incubated at 65° C. with 1 μl RNaseA (1 mg/ml) for 10 minutes. For direct telomerase assays, lysates were incubated with primer a5 (Wang et al., 2007) in 1× telomerase buffer (50 mM Tris-Cl, 30 mM KCl, 1 mM MgCl2, 1 mM spermidine), 0.5 mM dTTP, 0.5 mM dATP, 2.92 μM dGTP, and 0.33 μM α32P-dGTP at 30° C. Reactions were stopped at 10 or 15 minutes with 20 mM EDTA, 10 mM Tris spiked with 500 cpm end-labeled 18mer. […]

For a further test, the system named is PARP1. The test can be described thus: Western blot of PARylation with antibody against poly ADP-ribose. It is filed as cell-based. Conditions: antibody directed against poly ADP-ribose.
The next test relates to tankyrases. Conditions: in vitro assays; cited from earlier work.

“Also recorded” adds a separate entry of the source.

T1 sequence (O14746 whole entry): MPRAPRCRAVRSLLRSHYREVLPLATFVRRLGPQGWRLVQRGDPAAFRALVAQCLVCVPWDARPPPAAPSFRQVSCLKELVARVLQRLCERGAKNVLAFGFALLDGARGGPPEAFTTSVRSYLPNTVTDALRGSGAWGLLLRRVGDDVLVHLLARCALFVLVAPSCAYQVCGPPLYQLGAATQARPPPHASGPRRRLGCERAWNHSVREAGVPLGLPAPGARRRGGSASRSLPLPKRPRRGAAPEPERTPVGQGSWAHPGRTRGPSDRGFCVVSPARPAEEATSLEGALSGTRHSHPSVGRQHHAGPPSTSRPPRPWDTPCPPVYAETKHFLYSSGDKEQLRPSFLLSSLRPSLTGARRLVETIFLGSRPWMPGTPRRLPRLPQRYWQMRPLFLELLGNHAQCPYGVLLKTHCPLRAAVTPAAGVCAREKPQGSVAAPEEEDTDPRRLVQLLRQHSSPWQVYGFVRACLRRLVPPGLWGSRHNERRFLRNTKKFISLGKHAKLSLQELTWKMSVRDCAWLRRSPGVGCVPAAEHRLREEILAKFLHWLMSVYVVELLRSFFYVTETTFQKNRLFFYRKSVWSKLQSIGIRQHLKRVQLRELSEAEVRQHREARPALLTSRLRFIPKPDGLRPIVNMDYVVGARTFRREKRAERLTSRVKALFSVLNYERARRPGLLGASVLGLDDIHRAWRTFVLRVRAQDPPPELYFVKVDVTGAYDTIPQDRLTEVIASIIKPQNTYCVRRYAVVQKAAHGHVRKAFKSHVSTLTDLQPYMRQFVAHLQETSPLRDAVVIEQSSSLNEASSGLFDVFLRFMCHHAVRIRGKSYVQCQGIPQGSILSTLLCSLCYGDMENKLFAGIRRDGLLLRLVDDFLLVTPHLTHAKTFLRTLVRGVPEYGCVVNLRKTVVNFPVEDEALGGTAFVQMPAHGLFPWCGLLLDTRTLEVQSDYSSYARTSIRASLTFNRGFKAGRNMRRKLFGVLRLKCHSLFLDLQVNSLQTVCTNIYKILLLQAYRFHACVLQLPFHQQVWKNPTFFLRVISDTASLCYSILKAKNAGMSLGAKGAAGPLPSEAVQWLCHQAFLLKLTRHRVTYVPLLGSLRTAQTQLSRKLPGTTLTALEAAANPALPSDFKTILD
T1 sequence (O60832 whole entry partner): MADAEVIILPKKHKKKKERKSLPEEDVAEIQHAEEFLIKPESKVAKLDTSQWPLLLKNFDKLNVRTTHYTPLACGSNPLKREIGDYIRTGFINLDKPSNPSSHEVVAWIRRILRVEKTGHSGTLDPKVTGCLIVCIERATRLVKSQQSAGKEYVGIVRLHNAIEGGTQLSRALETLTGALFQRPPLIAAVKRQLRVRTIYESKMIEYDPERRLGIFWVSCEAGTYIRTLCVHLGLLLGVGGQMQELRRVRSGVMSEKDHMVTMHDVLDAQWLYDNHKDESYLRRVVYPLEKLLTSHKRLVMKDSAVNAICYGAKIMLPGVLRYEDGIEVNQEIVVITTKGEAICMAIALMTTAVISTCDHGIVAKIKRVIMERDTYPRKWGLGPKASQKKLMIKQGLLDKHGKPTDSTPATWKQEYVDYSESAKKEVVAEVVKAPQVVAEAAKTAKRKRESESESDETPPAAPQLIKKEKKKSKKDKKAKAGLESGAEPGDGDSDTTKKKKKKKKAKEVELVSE
T1 sequence (Q9NPE3 whole entry partner): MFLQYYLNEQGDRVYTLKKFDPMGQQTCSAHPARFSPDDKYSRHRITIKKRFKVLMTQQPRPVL
T1 sequence (Q9NX24 whole entry partner): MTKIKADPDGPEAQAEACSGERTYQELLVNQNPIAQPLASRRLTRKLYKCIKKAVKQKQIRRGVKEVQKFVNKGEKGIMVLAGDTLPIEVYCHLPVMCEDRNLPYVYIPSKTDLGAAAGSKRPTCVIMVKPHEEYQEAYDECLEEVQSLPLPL
T1 sequence (Q9NY12 whole entry partner): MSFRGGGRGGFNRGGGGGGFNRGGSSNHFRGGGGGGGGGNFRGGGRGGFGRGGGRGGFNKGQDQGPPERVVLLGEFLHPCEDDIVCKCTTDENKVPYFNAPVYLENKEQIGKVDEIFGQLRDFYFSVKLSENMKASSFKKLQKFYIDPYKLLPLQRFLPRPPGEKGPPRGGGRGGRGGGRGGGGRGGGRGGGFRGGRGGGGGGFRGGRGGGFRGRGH
Protocol for PARP1: To examine activation of ATM kinase pathway in response to PARP1 inhibition the phosphorylation levels of KAP1, in response to the PARP1 inhibitor, Olaparib was measured.
To detect phospho-proteins, 1× lysis buffer made of final concentration of 1×RIPA™ (Cell Signaling, #98016S), 1× protease inhibitor cocktail, 1× PhosSTOP™ (Roche, 4906845001) was added directly to cells on the dish after washing with PBS. Protein concentration was measured with a BCA protein assay kit (Thermo, #23227). Typically 10 μg of protein from each sample was applied to SDS-PAGE gels (Biorad, #456-1084) and transferred to nitrocellulose membranes in transfer buffer. After blocking with the Odyssey™ blocking buffer (LI-COR, #927-40000), membranes were incubated at 4° C. overnight or 1 hr at RT with the following primary antibodies: anti-phospho-Kap1 (Bethyl Lab, #A300-767A); anti-phospho-CHK1 (Cell Signaling, #2348S); anti-phospho-ATM (Millipore, #05-740); anti-HA (Santa Cruz, #sc-7392); anti-Actin (Santa Cruz, #sc-1616); anti-PAR (Trevigen, #4335-MC-100). The following day, blots are washed with 1×PBS− T for 3×15 minutes, and then incubated with secondary antibodies conjugated to near-infrared dyes (IRDye® 680 anti-goat, 800 anti-rabbit, 800 anti-mouse, LI-COR). […] Band intensities were quantified using the Odyssey™ software (LI-COR) and normalized to Actin levels. […]

Regarding `O=c1cc(-c2cccc3c2Sc2ccccc2S3)oc(N2CCOCC2)c1` [KU55933], the bulk telomere length entry in the test with SL13 cells (SL13 cells grown in 10 μM KU55933, different population doublings) was “telomere shortening also occurred, although at a somewhat slower rate”. In addition, on telomerase, the telomerase activity result was “no change in telomerase activity”.
As to `O=C(c1cc(Cc2n[nH]c(=O)c3ccccc23)ccc1F)N1CCN(C(=O)C2CC2)CC1` [Olaparib], in the test on PARP1, the PARylation result is on record as “inhibited PARylation”. Also, the “telomere length by Southern blot” value in the test with SL13 cells (SL13 cells grown in presence of Olaparib for 55 population doublings) is “Telomere length gradually increased; also recorded: gradually increased after 25 PDs”. The telomerase activity entry at telomerase was “no change in telomerase activity”. Also, in the test with tankyrases, the effect on tankyrases result is “little effect on tankyrases”.
